Key:
Assay type in all cases: biochemical
mouse MMP-12 = target: T1, mouse MMP-12 (Mus musculus, UniProt P34960); test: In vitro mouse MMP-12 inhibition test (standard or high-sensitivity)
T1 construct: purchased R&D Systems 3467-MP
From the text: (§1) The MMP-mediated amidolytic cleavage of a suitable peptide substrate leads to an increase in fluorescent light here too. The signal intensity of the fluorescent light is directly proportional to the enzyme activity. The active concentration of a test compound at which half the enzyme is inhibited (50% signal intensity of the fluorescent light) is reported as the IC50 value.
Recombinant mouse MMP-12 (from R&D Systems, 3467-MP) is autocatalytically activated in accordance with the manufacturer's instructions. 1 μl of the test compound to be analysed (as a solution in DMSO, suitable concentrations, for example, 1 nM to 30 μM) is pipetted into 24 μl of activated enzyme (final concentration, for example, 1 nM) in reaction buffer (50 mM Tris/HCl pH 7.5, 10 mM CaCl2, 150 mM NaCl, 0.05% Brij®-35) in a white 384-hole microtiter plate (MTP). The enzymatic reaction is started by adding the intramolecularly quenched Mca-Lys-Pro-Leu-Gly-Leu-Dpa(Dnp)-Ala-Arg-NH2 substrate (final concentration, for example, 5 μM; R&D Systems, ES-010), so as to result in a total test volume of 50 The course of the MMP-12 reaction is measured by measuring the fluorescence intensity (excitation 320 nm, emission 410 nm) over a suitable period of time (for example over 120 min at a temperature of 32° C.).
In this case, an enzyme concentration ten times lower is used (final concentration, for example, 0.1 nM) in order to achieve an elevated test sensitivity. The incubation period chosen for the test is correspondingly longer (for example 16 hours).

MMP-16 = target: T2, MMP-16 (Homo sapiens, UniProt P51512); test: In vitro MMP-16 inhibition test
T2 construct: purchased R&D Systems 1785-MP
T2 sequence (P51512 120-564 limits assumed): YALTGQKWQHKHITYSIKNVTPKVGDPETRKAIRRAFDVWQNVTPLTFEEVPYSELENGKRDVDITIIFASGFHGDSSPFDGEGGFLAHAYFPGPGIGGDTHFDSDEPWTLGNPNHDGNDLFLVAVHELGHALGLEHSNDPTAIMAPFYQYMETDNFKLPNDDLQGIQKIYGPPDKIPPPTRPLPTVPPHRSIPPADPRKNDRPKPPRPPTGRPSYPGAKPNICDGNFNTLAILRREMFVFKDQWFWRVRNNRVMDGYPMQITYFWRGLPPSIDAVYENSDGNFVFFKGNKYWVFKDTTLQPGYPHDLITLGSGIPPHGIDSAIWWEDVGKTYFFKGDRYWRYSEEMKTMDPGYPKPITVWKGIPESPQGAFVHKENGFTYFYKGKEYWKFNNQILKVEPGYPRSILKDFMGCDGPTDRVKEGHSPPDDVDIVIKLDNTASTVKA
From the text: as §1
Recombinant MMP-16 (from R&D Systems, 1785-MP) is enzymatically activated in accordance with the manufacturer's instructions using recombinant furin (from R&D Systems, 1503-SE). 1 μl of the test compound to be analysed (as a solution in DMSO, suitable concentrations e.g. 1 nM to 30 μM) is pipetted into 24 μl of activated enzyme (final concentration e.g. 1 nM) in reaction buffer (50 mM Tris/HCl pH 7.5, 10 mM CaCl2, 150 mM NaCl, 0.05% Brij®-35) in a white 384-hole microtiter plate (MTP). The enzymatic reaction is started by adding the intramolecularly quenched Mca-Lys-Pro-Leu-Gly-Leu-Dpa(Dnp)-Ala-Arg-NH2 substrate (final concentration, for example, 5 μM; R&D Systems, ES-010), so as to result in a total test volume of 50 The course of the MMP-16 reaction is measured by measuring the fluorescence intensity (excitation 320 nm, emission 410 nm) over a suitable period of time (for example over 120 min at a temperature of 32° C.).

MMP-13 = target: T3, MMP-13 (Homo sapiens, UniProt P45452); test: In vitro MMP-13 inhibition test
T3 construct: purchased R&D Systems 511-MP
From the text: as §1
(§2) Recombinant MMP-13 (from R&D Systems, 511-MP) is chemically activated in accordance with the manufacturer's instructions using APMA. 1 μl of the test compound to be analysed (as a solution in DMSO, suitable concentrations, for example, 1 nM to 30 μM) is pipetted into 24 μl of activated enzyme (final concentration, for example, 0.1 nM) in reaction buffer (50 mM Tris/HCl pH 7.5, 10 mM CaCl2, 150 mM NaCl, 0.05% Brij®-35) in a white 384-hole microtiter plate (MTP). The enzymatic reaction is started by adding the intramolecularly quenched Mca-Pro-Leu-Gly-Leu-Dpa(Dnp)-Ala-Arg-NH2 substrate (final concentration, for example, 10 μM; R&D Systems, ES-001), so as to result in a total test volume of 50 The course of the MMP-13 reaction is measured by measuring the fluorescence intensity (excitation 320 nm, emission 410 nm) over a suitable period of time (for example over 120 min at a temperature of 32° C.).

mouse MMP-9 = target: T4, mouse MMP-9 (Mus musculus, UniProt P41245); test: In vitro mouse MMP-9 inhibition test
T4 construct: purchased R&D Systems 909-MP
T4 sequence (P41245 108-730): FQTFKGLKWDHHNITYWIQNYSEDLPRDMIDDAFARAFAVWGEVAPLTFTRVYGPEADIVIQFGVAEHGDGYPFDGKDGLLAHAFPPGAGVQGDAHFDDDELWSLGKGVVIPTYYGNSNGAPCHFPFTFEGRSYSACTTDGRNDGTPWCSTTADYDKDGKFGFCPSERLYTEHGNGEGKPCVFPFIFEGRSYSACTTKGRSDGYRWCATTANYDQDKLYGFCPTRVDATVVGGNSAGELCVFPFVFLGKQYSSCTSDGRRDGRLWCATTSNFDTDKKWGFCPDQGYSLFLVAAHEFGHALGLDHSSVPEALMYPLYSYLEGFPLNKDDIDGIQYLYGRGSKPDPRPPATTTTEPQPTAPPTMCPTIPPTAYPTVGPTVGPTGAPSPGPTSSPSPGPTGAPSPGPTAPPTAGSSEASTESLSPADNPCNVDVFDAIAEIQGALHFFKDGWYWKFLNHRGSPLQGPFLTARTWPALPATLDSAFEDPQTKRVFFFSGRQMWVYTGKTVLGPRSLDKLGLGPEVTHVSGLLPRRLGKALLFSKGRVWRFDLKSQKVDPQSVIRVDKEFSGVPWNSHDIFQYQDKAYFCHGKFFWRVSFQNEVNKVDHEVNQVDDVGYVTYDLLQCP
From the text: as §1
as §2, with “Recombinant mouse MMP-9” for “Recombinant MMP-13”, “Systems, 909-MP)” for “Systems, 511-MP)”, “example, 5” for “example, 10”, “the MMP-9” for “the MMP-13”

MMP-14 = target: T5, MMP-14 (Homo sapiens, UniProt P50281); test: In vitro MMP-14 inhibition test
T5 construct: purchased R&D Systems 918-MP
From the text: as §1
Recombinant MMP-14 (from R&D Systems, 918-MP) is enzymatically activated in accordance with the manufacturer's instructions using recombinant furin (from R&D Systems, 1503-SE). 1 μl of the test compound to be analysed (as a solution in DMSO, suitable concentrations e.g. 1 nM to 30 μM) is pipetted into 24 μl of activated enzyme (final concentration e.g. 0.5 nM) in reaction buffer (50 mM Tris/HCl pH 7.5, 10 mM CaCl2, 150 mM NaCl, 0.05% Brij®-35) in a white 384-hole microtiter plate (MTP). The enzymatic reaction is started by adding the intramolecularly quenched Mca-Lys-Pro-Leu-Gly-Leu-Dpa(Dnp)-Ala-Arg-NH2 substrate (final concentration, for example, 5 μM; R&D Systems, ES-010), so as to result in a total test volume of 50 The course of the MMP-14 reaction is measured by measuring the fluorescence intensity (excitation 320 nm, emission 410 nm) over a suitable period of time (for example over 120 min at a temperature of 32° C.).

T1 sequence (P34960 110-473): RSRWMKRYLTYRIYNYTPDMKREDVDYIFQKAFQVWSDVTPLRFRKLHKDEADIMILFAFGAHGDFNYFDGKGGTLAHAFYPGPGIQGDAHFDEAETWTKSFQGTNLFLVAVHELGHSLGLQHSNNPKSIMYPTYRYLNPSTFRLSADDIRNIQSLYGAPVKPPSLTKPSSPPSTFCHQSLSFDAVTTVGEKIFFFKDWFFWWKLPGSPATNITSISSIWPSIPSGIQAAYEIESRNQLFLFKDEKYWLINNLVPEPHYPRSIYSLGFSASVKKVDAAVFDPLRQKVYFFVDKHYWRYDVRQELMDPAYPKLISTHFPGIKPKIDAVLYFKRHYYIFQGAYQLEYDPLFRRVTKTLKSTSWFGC

| SMILES | IC50 (mouse MMP-12) | IC50 (MMP-16) | IC50 (MMP-13) | IC50 (mouse MMP-9) | IC50 (MMP-14) |
| --- | --- | --- | --- | --- | --- |
| Cc1ccc2nnn(C[C@@H]3CC[C@H](C(=O)c4ccc(OCc5cccc(C(F)(F)F)c5)cc4)[C@H]3C(=O)O)c(=O)c2c1 (racemic) [Example 100, (+/−)-(1RS,2SR,5RS)-2-[(6-Methyl-4-oxo-1,2,3-benzotriazin-3(4H)-yl)methyl]-5-(4-{[3-(trifluoromethyl)benzyl]oxy}benzoyl)cyclopentanecarboxylic acid] | 1.7 nM | 970 nM | 360 nM | 1100 nM | 720 nM |
| O=C(O)[C@H]1[C@H](Cn2nnc3ccccc3c2=O)CC[C@@H]1C(=O)c1ccc(OCc2cccc(Cl)c2)cc1 (racemic) [Example 2, (+/−)-(1RS,2RS,5SR)-2-{4-[(3-Chlorobenzyl)oxy]benzoyl}-5-[(4-oxo-1,2,3-benzotriazin-3(4H)-yl)methyl]cyclopentanecarboxylic acid] | 4.1 nM | 1000 nM | 400 nM | 1100 nM | 480 nM |
| O=C(O)[C@H]1[C@H](Cn2nnc3ccc(C(F)(F)F)cc3c2=O)CC[C@@H]1C(=O)c1ccc(OCC2CCCCC2)cc1 (racemic) [Example 40, (+/−)-(1RS,2RS,5SR)-2-[4-(Cyclohexylmethoxy)benzoyl]-5-{[4-oxo-6-(trifluoromethyl)-1,2,3-benzotriazin-3(4H)-yl]methyl}cyclopentanecarboxylic acid] | 1.9 nM | 920 nM | 380 nM | 640 nM | 460 nM |
| CCCCCOc1ccc(C(=O)[C@H]2CC[C@@H](Cn3nnc4ccc(C)cc4c3=O)[C@@H]2C(=O)O)cc1 (racemic) [Example 123, (+/−)-(1RS,2SR,5RS)-2-[(6-Methyl-4-oxo-1,2,3-benzotriazin-3(4H)-yl)methyl]-5-[4-(pentyloxy)benzoyl]cyclopentanecarboxylic acid] | 4.9 nM | 11000 nM | 230 nM | 770 nM | 490 nM |
| O=C(O)[C@H]1[C@H](Cn2nnc3ccc(C(F)(F)F)cc3c2=O)CC[C@@H]1C(=O)c1ccc(SCc2ccc(Cl)c(Cl)c2)cc1 (racemic) [Example 79, (+/−)-(1RS,2RS,5SR)-2-{4-[(3,4-Dichlorobenzyl)sulphanyl]benzoyl}-5-{[4-oxo-6-(trifluoromethyl)-1,2,3-benzotriazin-3(4H)-yl]methyl}cyclopentanecarboxylic acid] | 35 nM | > 40000 nM | 2700 nM | 2100 nM | 8700 nM |
| Cc1ccc2nnn(C[C@@H]3CC[C@H](C(=O)c4ccc(OCc5cccc(OC(F)(F)F)c5)cc4)[C@H]3C(=O)O)c(=O)c2c1 (racemic) [Example 109, (+/−)-(1RS,2SR,5RS)-2-[(6-Methyl-4-oxo-1,2,3-benzotriazin-3(4H)-yl)methyl]-5-(4-{[3-(trifluoromethoxy)benzyl]oxy}benzoyl)cyclopentanecarboxylic acid] | 3 nM | 3200 nM | 190 nM | 910 nM | 670 nM |
| O=C(O)[C@@H]1[C@@H](Cn2nnc3ccc(C(F)(F)F)cc3c2=O)CC[C@H]1C(=O)c1ccc(OCC2CCCCC2)cc1 (single isomer, unassigned) [Example 41, (+)-(1RS,2RS,5SR)-2-[4-(Cyclohexylmethoxy)benzoyl]-5-{[4-oxo-6-(trifluoromethyl)-1,2,3-benzotriazin-3(4H)-yl]methyl}cyclopentanecarboxylic acid] | 0.71 nM | 270 nM | 110 nM | 220 nM | 110 nM |
| O=C(O)[C@@H]1[C@@H](Cn2nnc3ccc(C(F)(F)F)cc3c2=O)CC[C@H]1C(=O)c1ccc(SCc2cccc(Cl)c2)cc1 (single isomer, unassigned) [Example 77, (+)-(1RS,2RS,5SR)-2-{4-[(3-Chlorobenzyl)sulphanyl]benzoyl}-5-{[4-oxo-6-(trifluoromethyl)-1,2,3-benzotriazin-3(4H)-yl]methyl}cyclopentanecarboxylic acid] | 2 nM | 3800 nM | 770 nM | 23000 nM | 1200 nM |
| Cc1cccc(COc2ccc(C(=O)[C@@H]3CC[C@H](Cn4nnc5ccc(C)cc5c4=O)[C@H]3C(=O)O)cc2)c1 (single isomer, unassigned) [Example 98, (+)-(1RS,2RS,5SR)-2-{4-[(3-Methylbenzyl)oxy]benzoyl}-5-[(6-methyl-4-oxo-1,2,3-benzotriazin-3(4H)-yl)methyl]cyclopentanecarboxylic acid] | 1.2 nM | 670 nM | 410 nM | 460 nM | 210 nM |
| Cc1cccc(COc2ccc(C(=O)[C@H]3CC[C@@H](Cn4nnc5ccc(C)cc5c4=O)[C@@H]3C(=O)O)cc2)c1 (racemic) [Example 97, (+/−)-(1RS,2RS,5SR)-2-{4-[(3-Methylbenzyl)oxy]benzoyl}-5-[(6-methyl-4-oxo-1,2,3-benzotriazin-3(4H)-yl)methyl]cyclopentanecarboxylic acid] | 6.1 nM | 4500 nM | 1500 nM | 1600 nM | 870 nM |
| O=C(O)[C@@H]1[C@@H](Cn2nnc3ccc(C(F)(F)F)cc3c2=O)CC[C@H]1C(=O)c1ccc(OCCC2CCCCC2)cc1 (single isomer, unassigned) [Example 52, (+)-(1RS,2RS,5SR)-2-[4-(2-Cyclohexylethoxy)benzoyl]-5-{[4-oxo-6-(trifluoromethyl)-1,2,3-benzotriazin-3(4H)-yl]methyl}cyclopentanecarboxylic acid] | 10 nM | 4600 nM | 1600 nM | 2800 nM | 3600 nM |

— US20170022171A1, “2,5-DISUBSTITUTED CYCLOPENTANECARBOXYLIC ACIDS AND THEIR USE” (Bayer Pharma Aktiengesellschaft, priority 2014, published 2017)
